A word on the melting point: it is the temperature, or range, at which the solid turns liquid.

In turn, `CN(C)C(=O)c1cc(OCc2ccccc2)c2nc(C(F)(F)F)n(C)c2c1` returned a melting point of 144 to 146 °C.
For `O=[N+]([O-])c1oc2ccc(-c3ccc(CCO)cc3)cc2c1-c1ccccc1` the value was 86 to 87 °C; for `NS(=O)(=O)c1cc(C(=O)O)cc(NCc2ccccc2)c1Oc1ccccc1`, 264 to 265 °C; for `CCCCCCCCCCC[C@@H](O)CC(=O)OC`, 42 to 43 °C.
`COc1cccc(CCNCCc2c[nH]cn2)c1`: the melting point was 98 to 100 °C.
For `Cc1cccc(NC(=O)NC2N=C(CN3CC4CCC(CC4)C3)c3cccc(C)c3N(C)C2=O)c1` (stereo not given) the value was 146 to 149 °C; for `CC(C)(C)NC(=O)Nc1ccc([N+](=O)[O-])cc1O`, 99 to 101 °C; for `Cc1cc(F)ccc1C(=O)c1ccc(F)cc1C`, 50 to 52 °C.
Next, `CC(C(O)c1ccc2[nH]c(=O)[nH]c2c1)N1CCC(Cc2ccccc2)CC1` (stereo not given): 221 to 222 °C.
The molecule `Cc1ccc(-c2[nH]c(C3CCCCC3)nc2C(=O)Nc2nccs2)cc1` yielded a melting point of 199 to 200 °C.
Next, `COc1ccc(-c2cc(CO)c(=O)n(CCCc3ccc(F)cc3)n2)cc1F`: 130 to 133 °C; `CC(=O)Oc1cc2ccc(S(=O)(=O)Cl)cc2cc1OC(C)=O`: 158 to 167 °C.
Next, `CC[C@@H](Cc1ccc(OC)c(C(=O)NCc2ccc(Oc3ccc(F)c(F)c3)cc2)c1)C(=O)O`: 118 to 120 °C; `CCOC(=O)C1(c2ccccc2)CCC=CC1OC(C)=O` (stereo not given): 72 to 73 °C; `c1cc2cc(-c3nnn[nH]3)ccc2[nH]1`: 205 °C.
Take `COc1c(Cl)cc(Br)cc1Cl`: the melting point lay within 67 to 68 °C.
Next, `O=C(CC1CCC1)N[C@H]1CC[C@H](CCN2CCC(c3cccc4c3CCO4)CC2)CC1`: 196 °C; `O=C1NCCC(C(=O)c2ccc(Cc3ccc(F)cc3)o2)=C1O`: 166 to 168 °C; `CCc1cc2c(s1)-n1c(C)nnc1C(CCCC(=O)O)N=C2c1ccc(Cl)cc1` (stereo not given): 185 to 187 °C.
Next, `O=CC(=C(c1ccc(F)cc1)c1ccc(F)cc1)n1nnnc1-c1ccccc1`: 193 to 194 °C; `CC(C)(C)C(O)CN1C(=O)C(N)C(=O)N(c2ccccc2F)c2ccccc21` (stereo not given): 104 to 105 °C.
`CN(Cc1cccc2c1C(=O)N(C1CCC(=O)NC1=O)C2=O)C(=O)Nc1cccc(Cl)c1` (stereo not given) came in with a melting point of 193 to 195 °C.
Next, `CCC(=NO)c1ccc(OCCOC)cc1`: 74 to 80 °C; `CCCCCCCNC(=O)N(C)c1cccc(-c2ccc(CCC(=O)O)cc2OCCC(C)C)c1`: 60 to 62 °C.
`CC(C)N(Cc1nc(-c2ccccc2)no1)C(=O)COc1ccc(C(=O)O)cc1` displayed a melting point of 211 to 214 °C.
Next, `Clc1cccc(C(Cl)Cl)n1`: 48 to 52 °C; `O=C(O)C1(c2ccccc2)CCN(CCC(c2ccccc2)(c2ccccc2)c2ccccn2)CC1`: 270 to 275 °C.
For the molecule `CN1C(=O)N(c2c(Cl)cccc2Cl)Cc2cnc(NCCc3ccccc3)nc21`, the melting point lay within 148 to 151 °C.
`CC(=O)C1=C(O)C(C(=O)C=Cc2ccc(O)cc2)C(=O)OC1=O` (stereo not given) registered a melting point of 194 to 196 °C.
Take `Cc1cc(C(=O)Nc2ccn3cc(-c4ccccc4)nc3n2)ccn1`: the melting point lay within 255 to 257 °C.
Consider `CNCC1Cc2cc(-c3ccccc3)cc(-c3ccc(C)cc3)c2O1` (stereo not given), for which the melting point was greater than 250 °C.
On to `O=C(c1ccccc1)C1CCN1C(c1ccccc1)c1ccccc1` (stereo not given), for which the melting point fell in the range of 114 to 115 °C.
`CCCCOC(=O)[C@H]1CN(c2cc(F)c(C3CCSCC3)c(F)c2)C(=O)O1`: the melting point fell in the range of 86 to 89 °C.
For `O=C1c2c(O)ccc(O)c2-c2nn(CCCNCCO)c3ccc(NCCNCCO)c1c23` the value was 159 to 163 °C.
For `Nc1ccc(C(=O)c2ccccc2)c(Br)c1` the value was 157 to 160 °C.

For the origin of these results see a melting point compilation (Tetko et al.; mined from patent text by program, amines drawn as free bases though some values may be those of a salt).
